Measured values published in ChEMBL document CHEMBL4425090, “Antimalarial Oxoprotoberberine Alkaloids from the Leaves of Miliusa cuneata” (J Nat Prod, 2016).

Tests used:
Vero = experiment: Cytotoxicity against African green monkey Vero cells by sulforhodamine B assay; type: cell-based; details: Chlorocebus sabaeus
Plasmodium falciparum [1] = experiment: Antiplasmodial activity against multidrug-resistant Plasmodium falciparum K1 infected in human RBC incubated for 18 to 20 hrs by microdilution radioisotope method; type: functional, organism-based
Plasmodium falciparum [2] = experiment: Antiplasmodial activity against chloroquine/antifolate-sensitive Plasmodium falciparum TM4 infected in human RBC incubated for 18 to 20 hrs by microdilution radioisotope method; type: functional, organism-based
KB = experiment: Cytotoxicity against human KB cells by sulforhodamine B assay; type: functional, cell-based

With `Cc1c2ccncc2c(C)c2c1[nH]c1ccccc12` [ELLIPTECINE] the IC50 (Vero) was 0.4 µM.

In the case of `COc1cc(O)c2c(=O)c(OC)c(-c3ccc(O)c(OC)c3)oc2c1` [PACHYPODOL], the IC50 (Plasmodium falciparum [1]) is reported as > 47.8 µM, the IC50 (Vero) is reported as > 47.8 µM and the IC50 (Plasmodium falciparum [2]) is reported as > 47.8 µM. The IC50 (KB) was > 47.8 µM.

For `COc1cc2c(c(O)c1OC)CCn1c-2cc2ccc(O)c(O)c2c1=O`, the IC50 (Plasmodium falciparum [1]) was 26.3 µM, the IC50 (Vero) was > 47.8 µM and the IC50 (Plasmodium falciparum [2]) was 19.3 µM. For the same compound, the IC50 (KB) was > 47.8 µM.

With `COc1cc2c(c(OC)c1O)CCn1c-2cc2ccc(O)c(O)c2c1=O` the IC50 (Plasmodium falciparum [1]) was 32.4 µM, the IC50 (Vero) was > 47.8 µM and the IC50 (Plasmodium falciparum [2]) was 41.4 µM. For the same compound, the IC50 (KB) was > 47.8 µM.

With `O=C(/C=C/c1ccc(O)cc1)NCCc1ccc(O)cc1` [N-P-COUMAROYL TYRAMINE] the IC50 (Plasmodium falciparum [1]) was > 47.8 µM, the IC50 (Vero) was > 47.8 µM and the IC50 (Plasmodium falciparum [2]) was > 47.8 µM. For the same compound, the IC50 (KB) was > 47.8 µM.

With `COc1cc(OC)c2c(=O)c(OC)c(-c3ccc(O)c(OC)c3)oc2c1` the IC50 (Plasmodium falciparum [1]) was 27.9 µM, the IC50 (Vero) was > 47.8 µM and the IC50 (Plasmodium falciparum [2]) was 31.5 µM. For the same compound, the IC50 (KB) was > 47.8 µM.

In the case of `COc1cc(O)c2c(=O)c(OC)c(-c3ccc4c(c3)OCO4)oc2c1`, the IC50 (Plasmodium falciparum [1]) is reported as > 47.8 µM, the IC50 (Vero) is reported as > 47.8 µM and the IC50 (Plasmodium falciparum [2]) is reported as > 47.8 µM. The IC50 (KB) was > 47.8 µM.

`CC1(C)N=C(N)N=C(N)N1c1ccc(Cl)cc1` [CYCLOGUANIL] gave an IC50 (Plasmodium falciparum [1]) of 3.2 µM.

`COc1cc2c(c(OC)c1OC)CCN1C(=O)c3c(ccc(O)c3O)C[C@@H]21` was tested, and the IC50 (Plasmodium falciparum [1]) was 29.1 µM, the IC50 (Vero) was > 47.8 µM and the IC50 (Plasmodium falciparum [2]) was > 47.8 µM. For the same compound, the IC50 (KB) was > 47.8 µM.

For `COc1cc2c(c(OC)c1O)CCN1C(=O)c3c(ccc(O)c3O)C[C@@H]21`, the IC50 (Plasmodium falciparum [1]) was 26.1 µM, the IC50 (Vero) was > 47.8 µM and the IC50 (Plasmodium falciparum [2]) was 38.1 µM. For the same compound, the IC50 (KB) was > 47.8 µM.

With `COc1cccc2c1C(=O)c1c(O)c3c(c(O)c1C2=O)C[C@@](O)(C(=O)CO)C[C@@H]3O[C@H]1C[C@H](N)[C@H](O)[C@H](C)O1` [DOXORUBICIN] the IC50 (KB) was 1 µM.

`CC(C)=CCC/C(C)=C/[C@H]1OC(=O)C[C@]12C[C@H](O)C=CC2=O` showed an IC50 (Plasmodium falciparum [1]) of 9.1 µM, an IC50 (Vero) of 13.5 µM and an IC50 (Plasmodium falciparum [2]) of 11.1 µM. For the same compound, the IC50 (KB) was 10.2 µM.

Work on `CCc1nc(N)nc(N)c1-c1ccc(Cl)cc1` [PYRIMETHAMINE] yielded an IC50 (Plasmodium falciparum [1]) of 31 µM.

With `COc1cc(/C=C/C(=O)NCCc2ccc(O)cc2)ccc1O` [N-TRANS-FERULOYL TYRAMINE] the IC50 (Plasmodium falciparum [1]) was 54.9 µM, the IC50 (Vero) was > 47.8 µM and the IC50 (Plasmodium falciparum [2]) was > 47.8 µM. For the same compound, the IC50 (KB) was > 47.8 µM.

For `COc1cc(-c2oc3cc(OC)c(OC)c(O)c3c(=O)c2OC)ccc1O` [CHRYSOSPLENOL B], the IC50 (Plasmodium falciparum [1]) was 12.4 µM, the IC50 (Vero) was > 47.8 µM and the IC50 (Plasmodium falciparum [2]) was 39.5 µM. For the same compound, the IC50 (KB) was > 47.8 µM.

For `O=C(/C=C/c1ccc(O)c(O)c1)NCCc1ccc(O)cc1`, the IC50 (Plasmodium falciparum [1]) was 23.8 µM, the IC50 (Vero) was > 47.8 µM and the IC50 (Plasmodium falciparum [2]) was > 47.8 µM. The IC50 (KB) was > 47.8 µM.

`COc1cc2c(c(OC)c1OC)CCn1c-2cc2ccc(O)c(O)c2c1=O` was tested, and the IC50 (Plasmodium falciparum [1]) was 10.8 µM, the IC50 (Vero) was > 47.8 µM and the IC50 (Plasmodium falciparum [2]) was 25.6 µM. The IC50 (KB) was > 47.8 µM.

`COc1cc([C@H]2OC[C@H]3[C@@H]2CO[C@@H]3c2cc(OC)c(O)c(OC)c2)cc(OC)c1O` [SYRINGARESINOL] was tested, and the IC50 (Plasmodium falciparum [1]) was > 47.8 µM, the IC50 (Vero) was > 47.8 µM and the IC50 (Plasmodium falciparum [2]) was > 47.8 µM. For the same compound, the IC50 (KB) was > 47.8 µM.
